Source: patent US10023602B2, “Hamamelitannin analogues and uses thereof” (Universiteit Gent, priority 2014, dated 2018)

Assays:
[1] = tested on: methicillin resistant S. aureus Mu50 strain (S. aureus ATCC700699) biofilm; assay: Biofilm susceptibility to vancomycin, pre-treatment regimen (biofilm formed in presence of compound, then vancomycin); assay type: cell-based; conditions: for Pretreat. (25 μM): percentage Colony Forming Units (CFU's) per biofilm: compound 25 μM during biofilm formation; for Pretreat. (25 μM): percentage Colony Forming Units (CFU's) per biofilm / Pretreat (100 μM): percentage Colony Forming Units (CFU's) per biofilm: then VAN 20 μg/ml, compared to the untreated (negative) control; for Pretreat (100 μM): percentage Colony Forming Units (CFU's) per biofilm: compound 100 μM during biofilm formation; for EC50: concentration needed to get 50% killing compared to antibiotic alone (VAN 20 μg/ml) and complete killing, read-out: Pretreat. (EC50)
Protocol: (§1) The compounds were evaluated for their effect on biofilm susceptibility both under pre-treatment and combination treatment regimens. In the pre-treatment regimen, a methicillin resistant S. aureus Mu50 strain (S. aureus ATCC700699) was allowed to form biofilms in the presence of the compounds after which the biofilm was treated with vancomycin (20 μg/ml). In the combination treatment regimen, S. aureus Mu50 was allowed to form a mature biofilm after which it was treated with a combination of a compound and vancomycin. In brief, 100 μl of a standardized inoculum (10^8 CFU/ml) was placed in the wells of a round-bottom 96-well microtiter plate. The cells were allowed to adhere to the plate in the absence (combined treatment) or presence (pre-treatment) of the compounds (0.1-250 μM) for 4 h at 37° C. After this adhesion step, non-adhered cells were removed, the wells were rinsed and fresh medium with or without the compounds was added. The plates were incubated for an additional 20 h at 37° C. After this, the medium was removed, biofilms were rinsed with physiological saline and vancomycin (20 μg/ml) was added alone (pre-treatment) or with the compounds (combined treatment, 0.1-250 μM). Plates were placed at 37° C. for 24 h after which medium was removed, wells were rinsed and the surviving cells in each condition were collected. The number of surviving cells under each condition was compared to vancomycin treatment alone and was assessed by conventional plating. The REF compound (hamamelitannin) was also observed for its effect on biofilm susceptibility towards other antibiotics (incl. vancomycin, cefoxitin, tobramycin, cefazolin, cefalonium, daptomycin, linezolide and cephalexin). Biofilms were formed as described above and were treated with the antibiotics alone or in combination with the REF compound (250 μM). The number of surviving cells under each condition was compared to the untreated control biofilm and was assessed by conventional plating.

[2] = tested on: methicillin resistant S. aureus Mu50 strain (S. aureus ATCC700699) biofilm; assay: Biofilm susceptibility to vancomycin, combination treatment regimen (mature biofilm treated with compound plus vancomycin); assay type: cell-based; conditions: for Combin. (25 μM): percentage Colony Forming Units (CFU's) per biofilm: compound 25 μM together with VAN 20 μg/ml on mature biofilm; for Combin. (25 μM): percentage Colony Forming Units (CFU's) per biofilm / Combin. (100 μM): percentage Colony Forming Units (CFU's) per biofilm: compared to the untreated (negative) control; for Combin. (100 μM): percentage Colony Forming Units (CFU's) per biofilm: compound 100 μM together with VAN 20 μg/ml on mature biofilm; for EC50: concentration needed to get 50% killing compared to antibiotic alone (VAN 20 μg/ml) and complete killing, read-out: Combin. (EC50)
Protocol: as §1

| SMILES | Pretreat. (25 μM): percentage Colony Forming Units (CFU's) per biofilm [1] [percentage] | Combin. (25 μM): percentage Colony Forming Units (CFU's) per biofilm [2] [percentage] | Pretreat (100 μM): percentage Colony Forming Units (CFU's) per biofilm [1] [percentage] | EC50 [1] [µM] | Combin. (100 μM): percentage Colony Forming Units (CFU's) per biofilm [2] [percentage] | EC50 [2] [µM] |
| --- | --- | --- | --- | --- | --- | --- |
| O=C(NC[C@]1(O)CO[C@H](CNC(=O)c2ccccc2Cl)[C@H]1O)c1cccc(Cl)c1 [compound 241, 2-chloro-N-(((2R,3R,4S)-4-((3-chlorobenzamido)methyl)-3,4-dihydroxytetrahydrofuran-2-yl)methyl)benzamide] | 98.17 | 81.35 | – | – | – | – |
| O=C(NC[C@]1(O)CO[C@H](CNC(=O)c2ccc(Cl)nc2Cl)[C@H]1O)c1ccccc1 [compound 197, N-(((2R,3R,4S)-4-(benzamidomethyl)-3,4-dihydroxytetrahydrofuran-2-yl)methyl)-2,6-dichloronicotinamide] | – | – | 18.75 | 7.92 | 16.84 | 8.27 |
| O=C(NC[C@]1(O)CO[C@H](CNC(=O)c2ccncn2)[C@H]1O)c1ccccc1 [compound 204, N-(((2R,3R,4S)-4-(benzamidomethyl)-3,4-dihydroxytetrahydrofuran-2-yl)methyl)pyrimidine-4-carboxamide] | – | – | 13.04 | – | 15.85 | – |
| O=C(NC[C@H]1OC[C@@](O)(CNC(=O)c2ccccc2)[C@@H]1O)c1ccccc1 [compound 188, N,N′-(((2R,3R,4S)-3,4-dihydroxytetrahydrofuran-2,4-diyl)bis(methylene))dibenzamide] | – | – | 34.36 | – | 34.64 | – |
| O=C(NC[C@]1(O)CO[C@H](CNC(=O)c2ccccc2Cl)[C@H]1O)c1cccc(C(F)(F)F)c1 [compound 242, 2-chloro-N-(((2R,3R,4S)-3,4-dihydroxy-4-((3-(trifluoromethyl)benzamido)methyl)tetrahydrofuran-2-yl)methyl)benzamide] | 117.15 | 87.14 | – | – | – | – |
| Cc1cccc(C(=O)NC[C@H]2OC[C@@](O)(CNC(=O)c3ccccc3)[C@@H]2O)c1 [compound 160, N-(((2R,3R,4S)-4-(benzamidomethyl)-3,4-dihydroxytetrahydrofuran-2-yl)methyl)-3-methylbenzamide] | – | – | 23.09 | – | 23.39 | – |
| CCS(=O)(=O)NC[C@H]1OC[C@@](O)(CNC(=O)c2ccccc2)[C@@H]1O [compound 212, N-(((3S,4R,5R)-5-(ethylsulfonamidomethyl)-3,4-dihydroxytetrahydrofuran-3-yl)methyl)benzamide] | – | – | 50.68 | – | 52.64 | – |
| Cn1c(C(=O)NC[C@H]2OC[C@@](O)(CNC(=O)c3ccccc3)[C@@H]2O)cc2ccccc21 [compound 186, N-(((2R,3R,4S)-4-(benzamidomethyl)-3,4-dihydroxytetrahydrofuran-2-yl)methyl)-1-methyl-1H-indole-2-carboxamide] | – | – | 41.45 | – | 42.75 | – |
| CN(C[C@]1(O)CO[C@H](CNC(=O)c2ccccc2)[C@H]1O)C(=O)c1ccccc1 [compound 229, N-(((3S,4R,5R)-5-(benzamidomethyl)-3,4-dihydroxytetrahydrofuran-3-yl)methyl)-N-methylbenzamide] | – | – | 7.17 | 5.82 | 11.15 | 8.92 |
| Cc1ccccc1C(=O)NC[C@]1(O)CO[C@H](CNC(=O)c2ccccc2Cl)[C@H]1O [compound 244, 2-chloro-N-(((2R,3R,4S)-3,4-dihydroxy-4-((2-methylbenzamido)methyl)tetrahydrofuran-2-yl)methyl)benzamide] | 41.07 | 54.77 | – | 56.4 | – | 124 |
| O=C(NC[C@]1(O)CO[C@H](CNC(=O)c2ccccn2)[C@H]1O)c1ccccc1 [compound 176, N-(((2R,3R,4S)-4-(benzamidomethyl)-3,4-dihydroxytetrahydrofuran-2-yl)methyl)picolinamide] | – | – | 21.56 | – | 36.02 | – |
| O=C(NC[C@]1(O)CO[C@H](CNC(=O)c2cccc3ccccc23)[C@H]1O)c1ccccc1 [compound 184, N-(((2R,3R,4S)-4-(benzamidomethyl)-3,4-dihydroxytetrahydrofuran-2-yl)methyl)-1-naphthamide] | – | – | 33.91 | – | 40.23 | – |
| O=C(NC[C@]1(O)CO[C@H](Cn2cc(-c3ccccc3)nn2)[C@H]1O)c1ccccc1 [compound 221, N-(((3S,4R,5R)-3,4-dihydroxy-5-((4-phenyl-1H-1,2,3-triazol-1-yl)methyl)tetrahydrofuran-3-yl)methyl)benzamide] | – | – | 54.01 | – | 33.81 | – |
| Cc1ccc(C(=O)NC[C@H]2OC[C@@](O)(CNC(=O)c3ccccc3)[C@@H]2O)cc1 [compound 151, N-(((2R,3R,4S)-4-(benzamidomethyl)-3,4-dihydroxytetrahydrofuran-2-yl)methyl)-4-methylbenzamide] | – | – | 22.36 | – | 24.59 | – |
| O=C(NC[C@H]1OC[C@@](O)(CNC(=O)c2ccccc2)[C@@H]1O)c1ccc2ccccc2c1 [compound 185, N-(((2R,3R,4S)-4-(benzamidomethyl)-3,4-dihydroxytetrahydrofuran-2-yl)methyl)-2-naphthamide] | – | – | 22.11 | – | 36.32 | – |
| CS(=O)(=O)NC[C@H]1OC[C@@](O)(CNC(=O)c2ccccc2)[C@@H]1O [compound 211, N-(((3S,4R,5R)-3,4-dihydroxy-5-(methylsulfonamidomethyl)tetrahydrofuran-3-yl)methyl)benzamide] | – | – | 31.02 | – | 38.03 | – |
| CN(C)c1cccc(C(=O)NC[C@H]2OC[C@@](O)(CNC(=O)c3ccccc3)[C@@H]2O)c1 [compound 165, N-(((2R,3R,4S)-4-(benzamidomethyl)-3,4-dihydroxytetrahydrofuran-2-yl)methyl)-3-(dimethylamino)benzamide] | – | – | 16.00 | – | 26.43 | – |
| O=C(NC[C@]1(O)CO[C@H](CNC(=O)c2ccccc2C(F)(F)F)[C@H]1O)c1ccccc1 [compound 175, N-(((2R,3R,4S)-4-(benzamidomethyl)-3,4-dihydroxytetrahydrofuran-2-yl)methyl)-2-(trifluoromethyl)benzamide] | – | – | 22.48 | – | 34.85 | – |
| O=C(NC[C@]1(O)CO[C@H](CNC(=O)c2ccccc2Cl)[C@H]1O)c1ccc(C(F)(F)F)cc1 [compound 238, 2-chloro-N-(((2R,3R,4S)-3,4-dihydroxy-4-((4-(trifluoromethyl)benzamido)methyl)tetrahydrofuran-2-yl)methyl)benzamide] | 45.03 | 68.51 | – | 84.6 | – | 75.2 |
| O=C(NC[C@]1(O)CO[C@H](CNC(=O)c2ccncc2Cl)[C@H]1O)c1ccccc1 [compound 200, N-(((2R,3R,4S)-4-(benzamidomethyl)-3,4-dihydroxytetrahydrofuran-2-yl)methyl)-3-chloroisonicotinamide] | – | – | 58.59 | > 250 | 48.93 | 232 |
| O=C(NC[C@]1(O)CO[C@H](CNS(=O)(=O)c2ccccc2-c2ccccc2)[C@H]1O)c1ccccc1 [compound 220, N-(((3S,4R,5R)-5-(([1,1′-biphenyl]-2-sulfonamido)methyl)-3,4-dihydroxytetrahydrofuran-3-yl)methyl)benzamide] | – | – | 25.63 | – | 29.85 | – |
